Results published in ChEMBL document CHEMBL1201862, “PubChem BioAssay data set” (2004).
Activity calls are given as the source filed them.

Key:
[1] = target: T1, Corticotropin-releasing factor receptor 2/Corticotropin-releasing factor-binding protein (Homo sapiens, UniProt P24387+Q13324); experiment: Dose Response confirmation of uHTS hits for small molecule antagonists of the CRF-binding protein and CRF-R2 receptor complex.; format: functional; settings: read-out: IC50_Mean
T1 sequence (Q13324 whole entry): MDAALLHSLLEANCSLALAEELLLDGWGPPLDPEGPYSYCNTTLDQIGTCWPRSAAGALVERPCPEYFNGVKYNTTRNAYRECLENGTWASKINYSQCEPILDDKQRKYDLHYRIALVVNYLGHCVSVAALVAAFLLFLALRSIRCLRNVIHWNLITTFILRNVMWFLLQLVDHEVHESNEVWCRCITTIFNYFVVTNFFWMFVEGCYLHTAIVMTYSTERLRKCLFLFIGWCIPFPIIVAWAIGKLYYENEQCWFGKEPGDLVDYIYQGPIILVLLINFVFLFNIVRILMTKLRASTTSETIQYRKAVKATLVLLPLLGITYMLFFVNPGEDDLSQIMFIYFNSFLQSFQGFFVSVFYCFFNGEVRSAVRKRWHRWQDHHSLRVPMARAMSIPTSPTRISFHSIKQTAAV
T1 sequence (P24387 whole entry): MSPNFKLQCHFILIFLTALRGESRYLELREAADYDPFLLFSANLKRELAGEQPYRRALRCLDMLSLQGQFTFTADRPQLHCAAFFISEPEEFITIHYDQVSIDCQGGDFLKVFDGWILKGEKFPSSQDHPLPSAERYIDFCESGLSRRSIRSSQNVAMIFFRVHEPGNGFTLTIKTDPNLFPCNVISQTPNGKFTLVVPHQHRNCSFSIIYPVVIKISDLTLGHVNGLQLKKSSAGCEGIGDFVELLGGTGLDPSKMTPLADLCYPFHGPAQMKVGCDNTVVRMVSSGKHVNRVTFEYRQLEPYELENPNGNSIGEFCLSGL

[2] = target: T1, Corticotropin-releasing factor receptor 2/Corticotropin-releasing factor-binding protein; experiment: activators of CRF receptor 2 with binding protein – uHTS hits, confirmation (AID 602473); format: functional; settings: read-out: EC50_Mean
[3] = CRF-BP/CRF-R2 complex antagonists, dose response, cell-based, uHTS hits, 384-well (AID 651639); format: functional, Homo sapiens; settings: read-out: IC50_Mean
Large T antigen = Large T antigen (Simian virus 40, UniProt P03070); format: functional, Betapolyomavirus macacae;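 note: Confirmatory-stage PubChem screen for compounds that inhibit SV40 T antigen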
Large T antigen, sequence (P03070 whole entry): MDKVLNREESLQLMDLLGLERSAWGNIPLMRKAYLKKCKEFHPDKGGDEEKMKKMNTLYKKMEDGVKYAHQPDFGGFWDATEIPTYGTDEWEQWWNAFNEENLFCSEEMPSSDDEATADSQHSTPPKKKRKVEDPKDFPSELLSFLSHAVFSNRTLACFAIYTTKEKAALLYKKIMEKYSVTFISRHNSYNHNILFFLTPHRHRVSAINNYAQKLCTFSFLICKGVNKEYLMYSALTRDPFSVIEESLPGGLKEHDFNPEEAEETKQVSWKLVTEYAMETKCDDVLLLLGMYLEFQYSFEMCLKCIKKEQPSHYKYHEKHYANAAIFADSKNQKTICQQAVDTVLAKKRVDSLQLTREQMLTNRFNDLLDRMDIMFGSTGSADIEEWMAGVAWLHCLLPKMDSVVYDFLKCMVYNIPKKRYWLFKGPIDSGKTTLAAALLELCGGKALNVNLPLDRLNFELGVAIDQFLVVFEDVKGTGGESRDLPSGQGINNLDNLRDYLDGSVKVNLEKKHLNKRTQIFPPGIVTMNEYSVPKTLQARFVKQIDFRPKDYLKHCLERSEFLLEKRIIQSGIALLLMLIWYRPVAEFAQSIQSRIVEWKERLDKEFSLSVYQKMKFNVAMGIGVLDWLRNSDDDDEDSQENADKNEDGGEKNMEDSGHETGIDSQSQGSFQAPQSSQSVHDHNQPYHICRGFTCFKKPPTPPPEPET

[4] = target: T2, Rac GTPase-activating protein 1 (Homo sapiens, UniProt Q9H0H5); experiment: MgcRacGAP GTPase-activating activity inhibitors, confirmation, biochemical, ADP Hunter fluorescence, primary and confirmatory (AID 624330); format: functional
T2 sequence (Q9H0H5 whole entry): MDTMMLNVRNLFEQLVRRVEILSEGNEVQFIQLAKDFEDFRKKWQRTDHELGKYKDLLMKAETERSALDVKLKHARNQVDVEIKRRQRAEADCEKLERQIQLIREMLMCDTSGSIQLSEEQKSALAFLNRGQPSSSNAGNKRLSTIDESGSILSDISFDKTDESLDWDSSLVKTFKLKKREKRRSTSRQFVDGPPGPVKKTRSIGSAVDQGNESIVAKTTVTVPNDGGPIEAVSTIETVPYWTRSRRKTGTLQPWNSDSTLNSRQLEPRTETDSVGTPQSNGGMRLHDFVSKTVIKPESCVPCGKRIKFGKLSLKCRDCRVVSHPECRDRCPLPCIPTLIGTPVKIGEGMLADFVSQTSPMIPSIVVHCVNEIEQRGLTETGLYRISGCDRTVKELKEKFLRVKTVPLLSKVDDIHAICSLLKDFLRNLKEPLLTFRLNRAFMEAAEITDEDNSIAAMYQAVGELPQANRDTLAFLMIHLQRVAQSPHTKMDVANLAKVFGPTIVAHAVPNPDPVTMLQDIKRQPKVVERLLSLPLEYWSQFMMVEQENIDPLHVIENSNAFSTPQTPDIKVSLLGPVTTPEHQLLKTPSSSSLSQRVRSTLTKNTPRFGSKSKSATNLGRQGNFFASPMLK

[5] = ARNT/TACC3 interaction disruptors, potency, confirmation, biochemical, AlphaScreen, cherry-picked samples (AID 651703); format: functional, Homo sapiens;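 note: His-tagged ARNT PAS-B domain paired with GST-TACC3 E629A dimer coactivator fragment; potency of inhibitors that break up the complex and lower AlphaScreen signal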
Caspase-3 = target: T3, Caspase-3 (Homo sapiens, UniProt P42574); format: functional;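 note: Dose-response selectivity test against caspase-3 for candidate inhibitors of sentrin-specific proteases (SENPs)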
T3 sequence (P42574 whole entry): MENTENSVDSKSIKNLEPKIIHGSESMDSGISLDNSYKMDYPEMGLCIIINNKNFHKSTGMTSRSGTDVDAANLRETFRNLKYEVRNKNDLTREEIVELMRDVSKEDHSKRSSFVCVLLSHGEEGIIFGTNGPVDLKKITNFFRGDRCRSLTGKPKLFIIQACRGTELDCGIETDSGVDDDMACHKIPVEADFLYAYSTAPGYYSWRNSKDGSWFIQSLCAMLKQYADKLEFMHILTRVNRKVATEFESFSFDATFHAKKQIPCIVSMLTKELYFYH

[6] = target: T4, Sentrin-specific protease 7 (Homo sapiens, UniProt Q9BQF6); format: functional;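 note: Luminescence-based dose-response confirmation of ultra-high-throughput screening hits, measuring inhibition of SENP7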
T4 sequence (Q9BQF6 whole entry): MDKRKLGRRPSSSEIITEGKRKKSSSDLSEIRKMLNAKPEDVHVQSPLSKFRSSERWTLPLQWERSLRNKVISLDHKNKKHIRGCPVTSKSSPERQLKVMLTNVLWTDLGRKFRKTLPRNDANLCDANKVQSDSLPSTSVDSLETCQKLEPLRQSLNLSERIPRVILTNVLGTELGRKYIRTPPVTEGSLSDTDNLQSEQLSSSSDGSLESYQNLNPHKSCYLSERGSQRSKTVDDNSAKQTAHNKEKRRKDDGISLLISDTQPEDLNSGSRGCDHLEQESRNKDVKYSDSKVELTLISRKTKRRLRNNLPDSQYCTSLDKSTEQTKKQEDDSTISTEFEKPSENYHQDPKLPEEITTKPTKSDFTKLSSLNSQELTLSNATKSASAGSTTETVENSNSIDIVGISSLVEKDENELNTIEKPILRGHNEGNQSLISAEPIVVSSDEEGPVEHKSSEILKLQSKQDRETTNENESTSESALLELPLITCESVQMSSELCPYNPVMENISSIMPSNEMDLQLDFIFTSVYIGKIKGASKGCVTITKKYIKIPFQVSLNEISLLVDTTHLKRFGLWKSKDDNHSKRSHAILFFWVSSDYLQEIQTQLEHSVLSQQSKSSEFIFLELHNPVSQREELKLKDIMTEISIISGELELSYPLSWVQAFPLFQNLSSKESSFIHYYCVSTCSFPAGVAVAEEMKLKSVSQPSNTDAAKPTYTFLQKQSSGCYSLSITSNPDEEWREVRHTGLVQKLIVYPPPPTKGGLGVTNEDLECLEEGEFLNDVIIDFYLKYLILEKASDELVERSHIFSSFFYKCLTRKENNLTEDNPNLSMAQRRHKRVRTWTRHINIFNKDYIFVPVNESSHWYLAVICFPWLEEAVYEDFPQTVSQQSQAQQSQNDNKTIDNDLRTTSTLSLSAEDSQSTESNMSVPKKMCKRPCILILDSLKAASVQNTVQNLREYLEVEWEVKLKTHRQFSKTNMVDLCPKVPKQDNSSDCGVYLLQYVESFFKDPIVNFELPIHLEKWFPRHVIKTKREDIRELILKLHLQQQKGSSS

[7] = target: T5, Sentrin-specific protease 6 (Homo sapiens, UniProt Q9GZR1); format: functional;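 note: Luminescence-based dose-response confirmatory assay of SENP6 inhibition, following up an ultra-high-throughput screen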
T5 sequence (Q9GZR1 whole entry): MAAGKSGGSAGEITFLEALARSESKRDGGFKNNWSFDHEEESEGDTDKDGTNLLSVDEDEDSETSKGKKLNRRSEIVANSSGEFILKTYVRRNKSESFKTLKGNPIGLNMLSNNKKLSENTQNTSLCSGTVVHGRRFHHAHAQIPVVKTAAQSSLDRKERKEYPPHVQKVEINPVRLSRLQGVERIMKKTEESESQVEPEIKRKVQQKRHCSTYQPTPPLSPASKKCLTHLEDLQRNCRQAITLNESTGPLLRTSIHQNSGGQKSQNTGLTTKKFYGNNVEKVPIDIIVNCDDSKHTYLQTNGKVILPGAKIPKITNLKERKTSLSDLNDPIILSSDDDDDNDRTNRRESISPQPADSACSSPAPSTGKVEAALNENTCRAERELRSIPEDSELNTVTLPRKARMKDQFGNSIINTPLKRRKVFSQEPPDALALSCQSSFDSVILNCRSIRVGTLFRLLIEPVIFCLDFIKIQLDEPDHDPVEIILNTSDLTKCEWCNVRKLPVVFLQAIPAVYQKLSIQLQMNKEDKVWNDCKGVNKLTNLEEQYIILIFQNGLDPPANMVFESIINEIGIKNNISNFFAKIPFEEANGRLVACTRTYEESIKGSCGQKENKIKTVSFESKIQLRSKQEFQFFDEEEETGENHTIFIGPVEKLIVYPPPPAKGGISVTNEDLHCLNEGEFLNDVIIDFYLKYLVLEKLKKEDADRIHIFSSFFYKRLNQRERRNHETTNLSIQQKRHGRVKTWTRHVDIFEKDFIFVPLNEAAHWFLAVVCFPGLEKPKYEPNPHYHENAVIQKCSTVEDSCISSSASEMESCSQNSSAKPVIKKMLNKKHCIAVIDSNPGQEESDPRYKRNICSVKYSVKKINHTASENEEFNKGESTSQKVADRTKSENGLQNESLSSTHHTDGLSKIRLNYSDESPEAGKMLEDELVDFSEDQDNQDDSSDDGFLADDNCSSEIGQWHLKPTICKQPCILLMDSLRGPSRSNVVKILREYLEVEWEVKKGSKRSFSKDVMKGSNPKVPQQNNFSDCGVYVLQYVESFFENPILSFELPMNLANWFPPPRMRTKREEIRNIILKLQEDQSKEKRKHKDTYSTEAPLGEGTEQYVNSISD

[8] = target: T6, Sentrin-specific protease 8 (Homo sapiens, UniProt Q96LD8); format: functional;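 note: luminescence read-out of SENP8 inhibition, dose-response confirmation following an ultra-high-throughput screen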
T6 sequence (Q96LD8 whole entry): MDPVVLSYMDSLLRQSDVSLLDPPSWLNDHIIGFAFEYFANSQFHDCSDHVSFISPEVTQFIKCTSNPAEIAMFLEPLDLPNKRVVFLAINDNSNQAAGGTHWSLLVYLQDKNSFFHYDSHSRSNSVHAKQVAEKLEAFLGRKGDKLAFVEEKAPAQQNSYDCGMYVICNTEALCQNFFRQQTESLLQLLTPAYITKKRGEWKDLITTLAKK

[9] = growth suppression of PTEN-null colon cells, dose response, cell-based, HCT116 PTEN knockout (AID 1047); format: functional;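 note: HCT116 colon tumor cells with PTEN knocked out; cells exposed to compound for 60 hours before readout; potency for loss of cell viability measured by luminescence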
[10] = growth suppression of beta-catenin-knockout colon cells, dose response, cell-based, HCT116, human colon tumor (AID 1045); format: functional;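 note: HCT116 colon tumor cells with beta catenin knocked out; cells exposed to compound for 60 hours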
HEK293 = experiment: cells; format: functional, cell-based; settings: Homo sapiens
[11] = target: T7, Nuclear receptor subfamily 0 group B member 1 (Homo sapiens, UniProt P51843); experiment: Luminescence-based cell-based high throughput dose response assay for inhibitors of the orphan nuclear receptor subfamily 0, group B, member 1 (DAX1; NR0B1). [Related pubchem assays (depositor defined):AID504766, AID504790]; format: functional
T7 sequence (P51843 whole entry): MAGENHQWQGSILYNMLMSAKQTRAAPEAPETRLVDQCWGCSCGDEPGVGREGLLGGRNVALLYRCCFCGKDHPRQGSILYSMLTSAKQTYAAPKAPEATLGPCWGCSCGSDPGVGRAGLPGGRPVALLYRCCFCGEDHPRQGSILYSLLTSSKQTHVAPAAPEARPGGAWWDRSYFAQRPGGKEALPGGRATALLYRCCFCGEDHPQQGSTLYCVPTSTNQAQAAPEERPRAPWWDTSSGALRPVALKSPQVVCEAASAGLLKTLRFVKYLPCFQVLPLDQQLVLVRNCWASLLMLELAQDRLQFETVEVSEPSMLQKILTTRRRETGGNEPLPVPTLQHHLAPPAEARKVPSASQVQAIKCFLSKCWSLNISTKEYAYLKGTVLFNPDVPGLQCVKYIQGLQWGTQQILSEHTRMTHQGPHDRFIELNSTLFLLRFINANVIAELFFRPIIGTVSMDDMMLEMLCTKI

SMILES | IC50 (Caspase-3) | IC50 [6] | IC50 [7] | IC50 [8] | IC50 (HEK293) | IC50 [11] | also measured
Cc1ccc(NC(=O)c2ccccc2NS(=O)(=O)c2ccc(F)cc2)cc1S(=O)(=O)N1CCCCC1 | – | – | – | – | – | – | IC50 [1]: 2.59 µM (active); EC50 [2]: 4.33 µM (active); IC50 [3]: 6.13 µM (active)
CCOc1cc(/C=N/NC(=O)CSc2cccc3cccnc23)ccc1O | – | – | – | – | – | – | IC50 (Large T antigen): 7.45 µM (active); IC50 [4]: 34.2 µM (active); AC50 [5]: 90 µM (active)
C(=N\Nc1nc(-c2ccccc2)cs1)/c1cccs1 | 29.8 µM (active) | 4.19 µM (active) | 12.8 µM (active) | 31.6 µM (active) | – | – | –
O=C(CCCCn1c(=O)c2ccccc2n(Cc2ccc(F)cc2Cl)c1=O)NCc1ccco1 | – | – | – | – | – | – | IC50 [1]: 19.4 µM (active); EC50 [2]: > 53 µM (inactive); IC50 [3]: > 20 µM (inactive)
CCCSC(=N)N/N=C/c1cc(C)ccc1O | 46.3 µM (active) | 11.4 µM (active) | 93.5 µM (active) | > 100 µM (inactive) | – | – | EC50 [9]: 32.5 µM (active); EC50 [10]: 30 µM (active)
CCC[C@H]1CN(c2ccccc2)C(=O)[C@@H]1CC(=O)Nc1ccc(Br)cc1 | – | – | – | – | > 67.5 µM (inactive) | > 67.5 µM (inactive) | –
O=C(Nc1ccc2c(c1)[C@@H]1C[C@H](CC(=O)N3CCc4ccccc4C3)O[C@@H](CO)[C@@H]1O2)c1ccc2c(c1)OCO2 | – | – | – | – | – | – | AC50 [5]: 134 µM (active)
COC(=O)c1sc(-c2ccc(Cl)cc2)cc1N | 17.7 µM (active) | 2.96 µM (active) | 4.35 µM (active) | 67.1 µM (active) | – | – | –
CN(Cc1ccccc1Cl)C(=O)CCNC(=O)c1ccco1 | – | – | – | – | > 67.5 µM (inactive) | > 67.5 µM (inactive) | –
COc1ccc(N2CCN(C(=O)C3CCN(S(=O)(=O)c4ccc(C)cc4)CC3)CC2)cc1 | – | – | – | – | > 67.5 µM (inactive) | > 67.5 µM (inactive) | –
